Values of other authors, collected in US11944682B2, “Aggregation induced emission-bacteriophage bioconjugates” (priority 2020, dated 2024).

Details: used as standard

Q: Which “quantum yield for 1O2 (standard)” value does the source give for O=C1OC2(c3cc(I)c(O)c(I)c3Oc3c2cc(I)c(O)c3I)c2c(Cl)c(Cl)c(Cl)c(Cl)c21 [Rose Bengal, Rose Bengal lactone] here?
A: The value was roughly 75%.
